What was measured:
[1] = test system: theophylline dependent riboswitch B; experiment: Inducible T7 expression system, PT7-YFP reporter fluorescence; type: cell-based, S. elongatus; conditions: mutated PconII*
Experimental: (§1) FIGS. 2A-2B show characterization of inducible T7 expression systems in S. elongatus at different theophylline concentrations. The expression of the T7RNAP was driven by a mutated PconII* and was translationally controlled by riboswitch B (FIG. 2A) or riboswitch F (FIG. 2B). YFP fluorescence served as an easily readable output. Three independent strains were analyzed for each construct and error bars indicate standard deviations of the replicates.
(§2) To establish a functional and inducible T7RNAP based expression system for S. elongatus, devices were constructed where the transcription of the T7 RNA polymerase was driven by the conII promoter and its translation was controlled by either the theophylline dependent riboswitches B or F (Ma et al 2014). […] Thus, the potentiality of these regulatory devices when using a TRNAP expression system in S. elongatus was studied. Initially, the inventors constructed a reporter device in which the YFP reporter gene was driven by the PT7 and the T7RNAP expression was left under the control of a PconII-riboswitch (B or F). Both the T7RNAP expression systems and the reporter PT7-YFP were independently integrated at NS1 and NS2 of S. elongatus chromosome (Clerico et al 2007).

[2] = test system: theophylline dependent riboswitch F; experiment: as above; type: cell-based, S. elongatus; conditions: mutated PconII*
Experimental: as §1, §2

[3] = test system: S. elongatus recombinant strain MatB F pfm (module IIA); experiment: Bioconversion assay, MBE production at different theophylline concentrations; type: cell-based, Synechococcus elongatus
Experimental: FIGS. 6A-6B show MBE biosynthesis by recombinant MatB F pfm and MatB B6 pfm cyanobacterial strains induced with different theophylline concentrations.
The two strains containing module IA (MatB) for methylmalonyl-CoA biosynthesis, modules IIA or IIB for T7 RNAP and Sfp expression, and module III for the Mas and accessory enzyme expression were analyzed. In addition, strains without the module III and a wild type strain were comprised as negative controls. For the bioconversion assays the strains were induced with theophylline 2 mM and 24 h later supplemented with 10 mM methylmalonate, 0.25 mM n-octanol and labeled with 2 μCi ^14C-acetate (58.9 mCi/mmol, PerkinElmer). After addition of the precursors the cultures were grown for 48 h, the in vivo synthesis of MBE was analyzed on total lipid extractions from each culture by TLC fractionation and autoradiography (FIGS. 3A-3B). Additional control bioconversion assays were carried out in the absence of either or both precursors, and labeled MBE synthesized by the E. coli strain RQ1 used as a standard (Menendez-Bravo et al. 2014). […]

[4] = test system: S. elongatus AMC2302 wild type; experiment: Cell toxicity analysis of precursors; type: cell-based, Synechococcus elongatus; conditions: final concentration of 1 mM; preliminary analyses, FIG. 12A
Experimental: FIGS. 12A-12B show cell toxicity analysis to determine the optimal concentration of precursors. FIG. 12A is an image showing cell growth after addition of substrate. Methylmalonate (me-malonate) and propionate were added to S. elongatus AMC2302 wild type at different concentrations: 0, 1, 5, 10, 15, and 20 mM. Each column is a duplicate of the experiment. FIG. 12B is an image showing cell growth after addition of substrate. n-octanol was added to S. elongatus AMC2302 wild type at different concentrations: 0.125, 0.25, 0.5, 1, 2, and 0 mM. Each column is a duplicate (FIG. 12A), or triplicate of the experiment (FIG. 12B).
While module I was constitutively expressed from Peonn (Elledge and Davis et al. 1989; Taton et al. 2014), the expression and activation of module III depended on the expression of the T7 RNAP and Sfp placed in downstream PconII and under the translational control of theophylline inducible riboswitches. The biosynthesis of methylmalonyl-CoA required methylmalonate (module IA) or propionate (module IC) as substrates, and the transesterification of the ACP-bound MBFA required an alcohol substrate (n-octanol) to produce MBE as the final product. Cell toxicity analysis with methylmalonate, propionate and n-octanol were carried out to determine the optimal concentration of these precursors. (FIG. 12). […]

S. elongatus = conditions: at low concentrations; previously reported; cited from earlier work

Structure (SMILES)	concentration of theophylline needed to reach maximal fluorescence [1] [mM]	concentration of theophylline needed to reach maximal fluorescence [2] [mM]	effect on cell viability ([3]; 8 mM theophylline)	theophylline concentration reaching high levels of MBE production ([3]; module IIA, methylmalonate 10 mM, n-octanol 0.25 mM) [mM]	toxicity for S. elongatus [4]	toxicity for S. elongatus (S. elongatus)
Cn1c(=O)c2[nH]cnc2n(C)c1=O [theophylline]	2	1	detrimental to cell viability	4		
CCC(=O)O [propionate]					not toxic	toxic

Reference: patent US11274324B2, “Engineering polyketide synthase in cyanobacteria” (The Regents of the University of California, priority 2019, dated 2022)
